Measurements reported in PubChem BioAssay AID328 (DTP/NCI, 2004).
Values joined by “and” are separate entries in the source; they are usually repeats but may differ in a detail not shown here. Equal values may be shown once. Inconclusive results and toxic doses are left out.

System: BDF1 mice, P388 leukemia ip, median survival T/C
Test: NCI In Vivo Anticancer Drug Screen. Data for tumor model P388 Leukemia (intraperitoneal) in B6D2F1 (BDF1) mice
Settings: endpoint: median survival time, higher = longer survival
Procedure, shortened: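 Read-out is survival of treated animals expressed relative to the vehicle group, as a T/C ratio.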

[1] = dose: 100.0 mg/kg/injection, schedule: Q04DX003 (ip), vehicle: Klucel (hydroxypropylcellulose) (HPC)
[2] = dose: 200.0 mg/kg/injection, schedule: Q04DX003 (ip), vehicle: Klucel (hydroxypropylcellulose) (HPC)
[3] = dose: 100.0 mg/kg/injection, schedule: Q01DX009 (ip), vehicle: saline with Tween-80
[4] = dose: 200.0 mg/kg/injection, schedule: Q01DX009 (ip), vehicle: saline with Tween-80
[5] = dose: 100.0 mg/kg/injection, schedule: Q01DX009 (ip), vehicle: Klucel (hydroxypropylcellulose) (HPC)
[6] = dose: 50.0 mg/kg/injection, schedule: Q01DX009 (ip), vehicle: saline with Tween-80

`C/C=C/C1=C(Cl)C(=O)[C@@H](Cl)[C@@]1(O)C(=O)OC` was tested, and the T/C (dose: 0.31 mg/kg/injection, schedule: Q01DX009 (ip), vehicle: saline with Tween-80) was 106 % of control, the T/C (dose: 0.63 mg/kg/injection, schedule: Q01DX009 (ip), vehicle: saline with Tween-80) was 115 % of control and the T/C (dose: 1.25 mg/kg/injection, schedule: Q01DX009 (ip), vehicle: saline with Tween-80) was 106 % of control and 117 % of control. The T/C (dose: 2.5 mg/kg/injection, schedule: Q01DX001 (ip), vehicle: saline with Tween-80) was 106 % of control, the T/C (dose: 2.5 mg/kg/injection, schedule: Q04DX003 (ip), vehicle: saline with Tween-80) was 105 % of control and the T/C (dose: 4.4 mg/kg/injection, schedule: Q01DX009 (ip), vehicle: saline with Tween-80) was 121 % of control. For the same compound, the T/C (dose: 5.0 mg/kg/injection, schedule: Q01DX001 (ip), vehicle: saline with Tween-80) was 101 % of control, the T/C (dose: 5.0 mg/kg/injection, schedule: Q04DX003 (ip), vehicle: saline with Tween-80) was 110 % of control and the T/C (dose: 6.6 mg/kg/injection, schedule: Q01DX009 (ip), vehicle: saline with Tween-80) was 122 % of control. The T/C (dose: 8.8 mg/kg/injection, schedule: Q01DX009 (ip), vehicle: saline with Tween-80) was 114 % of control, the T/C (dose: 10.0 mg/kg/injection, schedule: Q01DX001 (ip), vehicle: saline with Tween-80) was 108 % of control and the T/C (dose: 10.0 mg/kg/injection, schedule: Q04DX003 (ip), vehicle: saline with Tween-80) was 108 % of control. For the same compound, the T/C (dose: 13.3 mg/kg/injection, schedule: Q01DX009 (ip), vehicle: saline with Tween-80) was 123 % of control, the T/C (dose: 17.0 mg/kg/injection, schedule: Q01DX001 (ip), vehicle: saline with Tween-80) was 119 % of control and the T/C (dose: 20.0 mg/kg/injection, schedule: Q01DX001 (ip), vehicle: saline with Tween-80) was 112 % of control.

In the case of `CN(C)c1ccc(/C=C\c2cc(=O)[nH]c3ccccc23)cc1`, the T/C [1] is reported as 87 % of control, the T/C [2] is reported as 91 % of control and the T/C (dose: 400.0 mg/kg/injection, schedule: Q04DX003 (ip), vehicle: Klucel (hydroxypropylcellulose) (HPC)) is reported as 87 % of control.

`CCOC(=O)C1=C(N)CC(c2ccc(C#N)cc2)NC1c1cccc(OC)c1O` (stereo not given) was tested, and the T/C (dose: 100.0 mg/kg/injection, schedule: Q01DX001 (ip), vehicle: saline with Tween-80) was 105 % of control and the T/C (dose: 200.0 mg/kg/injection, schedule: Q01DX001 (ip), vehicle: saline with Tween-80) was 111 % of control.

For `COc1ccc(CCNC(=O)CCN2C(=O)c3ccccc3C2=O)cc1OC`, the T/C (dose: 100.0 mg/kg/injection, schedule: Q04DX003 (ip), vehicle: saline with Tween-80) was 104 % of control, the T/C (dose: 200.0 mg/kg/injection, schedule: Q04DX003 (ip), vehicle: saline with Tween-80) was 90 % of control and the T/C (dose: 400.0 mg/kg/injection, schedule: Q04DX003 (ip), vehicle: saline with Tween-80) was 100 % of control.

In the case of `Cn1c(=O)c2c(nc(CCCCc3nc4c(c(=O)n(C)c(=O)n4C)n3C)n2C)n(C)c1=O`, the T/C [3] is reported as 91 % of control and the T/C [4] is reported as 88 % of control.

For `NC(N)=NC(N)=Nc1ccc([As](=O)(O)O)c(O)c1`, the T/C (dose: 44.0 mg/kg/injection, schedule: Q01DX009 (ip), vehicle: Klucel (hydroxypropylcellulose) (HPC)) was 156 % of control, the T/C (dose: 66.0 mg/kg/injection, schedule: Q01DX009 (ip), vehicle: Klucel (hydroxypropylcellulose) (HPC)) was 156 % of control and the T/C [5] was 169 % of control. The T/C (dose: 150.0 mg/kg/injection, schedule: Q01DX009 (ip), vehicle: Klucel (hydroxypropylcellulose) (HPC)) was 169 % of control and the T/C (dose: 150.0 mg/kg/injection, schedule: Q01DX009 (ip), vehicle: saline) was 155 % of control.

With `COc1cc2c(c(OC)c1OC)C(=O)/C(=C\c1ccccc1)O2` the T/C [4] was 96 % of control.

`ClC1=NC(Cl)C(Cl)=N/C1=N\c1ncn[nH]1` (stereo not given) was tested, and the T/C (dose: 6.25 mg/kg/injection, schedule: Q01DX009 (ip), vehicle: saline with Tween-80) was 110 % of control, the T/C (dose: 22.0 mg/kg/injection, schedule: Q04DX003 (ip), vehicle: saline with Tween-80) was 113 % of control and the T/C (dose: 50.0 mg/kg/injection, schedule: Q04DX003 (ip), vehicle: saline with Tween-80) was 118 % of control. For the same compound, the T/C (dose: 75.0 mg/kg/injection, schedule: Q04DX003 (ip), vehicle: saline with Tween-80) was 90 % of control.

For `CCn1cnc2c(=S)nc(N)[nH]c21`, the T/C (dose: 3.12 mg/kg/injection, schedule: Q01DX009 (ip), vehicle: Klucel (hydroxypropylcellulose) (HPC)) was 100 % of control, the T/C (dose: 6.25 mg/kg/injection, schedule: Q01DX009 (ip), vehicle: Klucel (hydroxypropylcellulose) (HPC)) was 118 % of control and the T/C (dose: 12.5 mg/kg/injection, schedule: Q01DX009 (ip), vehicle: Klucel (hydroxypropylcellulose) (HPC)) was 90 % of control. The T/C (dose: 25.0 mg/kg/injection, schedule: Q04DX003 (ip), vehicle: Klucel (hydroxypropylcellulose) (HPC)) was 100 % of control, the T/C (dose: 50.0 mg/kg/injection, schedule: Q04DX003 (ip), vehicle: Klucel (hydroxypropylcellulose) (HPC)) was 100 % of control and the T/C [1] was 104 % of control.

`Cc1ccc(CNCC(=O)O)cc1` was tested, and the T/C (dose: 100.0 mg/kg/injection, schedule: Q04DX003 (ip), vehicle: water) was 99 % of control, the T/C (dose: 200.0 mg/kg/injection, schedule: Q04DX003 (ip), vehicle: water) was 102 % of control and the T/C (dose: 400.0 mg/kg/injection, schedule: Q04DX003 (ip), vehicle: water) was 90 % of control.

For `OC(C1CO1)C(O)C1CO1` (stereo not given), the T/C (dose: 1.0 mg/kg/injection, schedule: Q01DX009 (ip), vehicle: saline) was 282 % of control, the T/C (dose: 2.0 mg/kg/injection, schedule: Q01DX009 (ip), vehicle: saline) was 168 % of control and the T/C (dose: 2.5 mg/kg/injection, schedule: Q01DX009 (ip), vehicle: saline) was 190 % of control. The T/C (dose: 5.0 mg/kg/injection, schedule: Q01DX009 (ip), vehicle: saline) was 260 % of control, the T/C (dose: 6.7 mg/kg/injection, schedule: Q01DX001 (ip), vehicle: saline) was 189 % of control and the T/C (dose: 6.7 mg/kg/injection, schedule: Q04DX003 (ip), vehicle: saline) was 250 % of control. For the same compound, the T/C (dose: 10.0 mg/kg/injection, schedule: Q01DX001 (ip), vehicle: saline) was 336 % of control and 209 % of control and 219 % of control, the T/C (dose: 10.0 mg/kg/injection, schedule: Q01DX009 (ip), vehicle: saline) was 110 % of control and the T/C (dose: 10.0 mg/kg/injection, schedule: Q04DX003 (ip), vehicle: saline) was 413 % of control. For the same compound, the T/C (dose: 12.5 mg/kg/injection, schedule: Q01DX001 (ip), vehicle: saline) was 231 % of control and 292 % of control and 333 % of control, the T/C (dose: 12.5 mg/kg/injection, schedule: Q04DX003 (ip), vehicle: saline) was 387 % of control and the T/C (dose: 15.0 mg/kg/injection, schedule: Q01DX001 (ip), vehicle: saline) was 280 % of control and 292 % of control and 318 % of control.

In the case of `Cc1ccc(NC(=O)Nc2ccccc2Cl)cc1Cl`, the T/C (dose: 100.0 mg/kg/injection, schedule: Q04DX003 (ip), vehicle: saline) is reported as 104 % of control, the T/C (dose: 200.0 mg/kg/injection, schedule: Q04DX003 (ip), vehicle: saline) is reported as 95 % of control and the T/C (dose: 400.0 mg/kg/injection, schedule: Q04DX003 (ip), vehicle: saline) is reported as 95 % of control.

`N#CSCc1ccc(OCc2ccccc2)cc1` was tested, and the T/C [6] was 100 % of control, the T/C [3] was 103 % of control and the T/C [4] was 112 % of control.

For `CC(C)COC(=O)C(C)Oc1ccc(Oc2ccc(Cl)cc2)cc1` (stereo not given), the T/C [6] was 98 % of control, the T/C [3] was 116 % of control and the T/C [4] was 91 % of control.

With `OC(c1ccccc1)(C1CCNCC1)C1CC1` (stereo not given) the T/C (dose: 25.0 mg/kg/injection, schedule: Q01DX001 (ip), vehicle: saline) was 107 % of control, the T/C (dose: 50.0 mg/kg/injection, schedule: Q01DX001 (ip), vehicle: saline) was 107 % of control and the T/C (dose: 100.0 mg/kg/injection, schedule: Q01DX001 (ip), vehicle: saline) was 118 % of control.

`COc1ccc(C=C2C(=O)N(C)C(=O)N(C)C2=O)cc1` was tested, and the T/C (dose: 50.0 mg/kg/injection, schedule: Q01DX009 (ip), vehicle: other) was 119 % of control.

For `Cc1onc(-c2ccccc2)c1NC(=O)OC(C)c1cccnc1` (stereo not given), the T/C [6] was 103 % of control, the T/C [3] was 108 % of control and the T/C [4] was 119 % of control.

`CC[C@H](c1ccc(O)cc1)[C@@H](CC)c1ccc(O)cc1` was tested, and the T/C (dose: 50.0 mg/kg/injection, schedule: Q01DX009 (ip), vehicle: Klucel (hydroxypropylcellulose) (HPC)) was 90 % of control, the T/C [5] was 100 % of control and the T/C (dose: 100.0 mg/kg/injection, schedule: Q04DX003 (ip), vehicle: other) was 100 % of control. The T/C (dose: 132.0 mg/kg/injection, schedule: Q04DX003 (ip), vehicle: Klucel (hydroxypropylcellulose) (HPC)) was 104 % of control and 120 % of control, the T/C (dose: 200.0 mg/kg/injection, schedule: Q01DX009 (ip), vehicle: Klucel (hydroxypropylcellulose) (HPC)) was 104 % of control and the T/C [2] was 104 % of control and 120 % of control. For the same compound, the T/C (dose: 300.0 mg/kg/injection, schedule: Q04DX003 (ip), vehicle: Klucel (hydroxypropylcellulose) (HPC)) was 109 % of control and 110 % of control and the T/C (dose: 400.0 mg/kg/injection, schedule: Q04DX003 (ip), vehicle: other) was 105 % of control.
